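Exposure lasted 48 hours, with cells grown in 96-well plates and compounds tested at five concentrations. TGI is the concentration that stops growth completely.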
How the values were obtained:
Assay in all cases: inhibition of tumour cell growth, NCI panel, 48 h
786-0 renal = system: 786-0 renal
A498 renal = system: A498 renal
A549 NSCLC = system: A549 NSCLC
ACHN renal = system: ACHN renal
BT-549 breast = system: BT-549 breast
CAKI-1 renal = system: CAKI-1 renal
CCRF-CEM leukemia = system: CCRF-CEM leukemia
COLO 205 colon = system: COLO 205 colon
DU-145 prostate = system: DU-145 prostate
EKVX NSCLC = system: EKVX NSCLC
HCC-2998 colon = system: HCC-2998 colon
HCT-116 colon = system: HCT-116 colon
HCT-15 colon = system: HCT-15 colon
HL-60(TB) leukemia = system: HL-60(TB) leukemia
HOP-62 NSCLC = system: HOP-62 NSCLC
HOP-92 NSCLC = system: HOP-92 NSCLC
HS 578T breast = system: HS 578T breast
HT29 colon = system: HT29 colon
IGROV1 ovarian = system: IGROV1 ovarian
K-562 leukemia = system: K-562 leukemia
KM12 colon = system: KM12 colon
LOX IMVI melanoma = system: LOX IMVI melanoma
M14 melanoma = system: M14 melanoma
MCF7 breast = system: MCF7 breast
MDA-MB-231 breast = system: MDA-MB-231 breast
MDA-MB-435 = system: MDA-MB-435
MDA-N = system: MDA-N
MOLT-4 leukemia = system: MOLT-4 leukemia
NCI-H460 lung = system: NCI-H460 lung
NCI/ADR-RES ovarian = system: NCI/ADR-RES ovarian
OVCAR-3 ovarian = system: OVCAR-3 ovarian
OVCAR-4 ovarian = system: OVCAR-4 ovarian
OVCAR-5 ovarian = system: OVCAR-5 ovarian
OVCAR-8 ovarian = system: OVCAR-8 ovarian
PC-3 prostate = system: PC-3 prostate
RPMI-8226 leukemia = system: RPMI-8226 leukemia
SF-268 CNS = system: SF-268 CNS
SF-295 CNS = system: SF-295 CNS
SF-539 CNS = system: SF-539 CNS
SK-MEL-2 melanoma = system: SK-MEL-2 melanoma
SK-MEL-28 melanoma = system: SK-MEL-28 melanoma
SK-MEL-5 melanoma = system: SK-MEL-5 melanoma
SK-OV-3 ovarian = system: SK-OV-3 ovarian
SN12C renal = system: SN12C renal
SNB-19 CNS = system: SNB-19 CNS
SR leukemia = system: SR leukemia
SW-620 colon = system: SW-620 colon
T-47D breast = system: T-47D breast
TK-10 renal = system: TK-10 renal
U251 CNS = system: U251 CNS
UACC-257 melanoma = system: UACC-257 melanoma
UACC-62 melanoma = system: UACC-62 melanoma
UO-31 renal = system: UO-31 renal
MALME-3M melanoma = system: MALME-3M melanoma
NCI-H226 lung = system: NCI-H226 lung
NCI-H23 lung = system: NCI-H23 lung
NCI-H522 lung = system: NCI-H522 lung
RXF 393 renal = system: RXF 393 renal
SNB-75 CNS = system: SNB-75 CNS

Structure (SMILES): COc1nc(-c2c[nH]c3ccccc23)cnc1N
- TGI (786-0 renal): 36.4 µM
- TGI (A498 renal): 38.5 µM
- TGI (A549 NSCLC): > 100 µM
- TGI (ACHN renal): > 100 µM
- TGI (BT-549 breast): > 100 µM
- TGI (CAKI-1 renal): > 100 µM
- TGI (CCRF-CEM leukemia): 14.8 µM
- TGI (COLO 205 colon): > 100 µM
- TGI (DU-145 prostate): 70.1 µM
- TGI (EKVX NSCLC): 61.5 µM
- TGI (HCC-2998 colon): > 100 µM
- TGI (HCT-116 colon): 55.7 µM
- TGI (HCT-15 colon): > 100 µM
- TGI (HL-60(TB) leukemia): 31.5 µM
- TGI (HOP-62 NSCLC): > 100 µM
- TGI (HOP-92 NSCLC): 23.9 µM
- TGI (HS 578T breast): 54.2 µM
- TGI (HT29 colon): 46.2 µM
- TGI (IGROV1 ovarian): > 100 µM
- TGI (K-562 leukemia): > 100 µM
- TGI (KM12 colon): > 100 µM
- TGI (LOX IMVI melanoma): > 100 µM
- TGI (M14 melanoma): 94.8 µM
- TGI (MCF7 breast): 84.1 µM
- TGI (MDA-MB-231 breast): 59.1 µM
- TGI (MDA-MB-435): > 100 µM
- TGI (MDA-N): 48.9 µM
- TGI (MOLT-4 leukemia): 54.9 µM
- TGI (NCI-H460 lung): > 100 µM
- TGI (NCI/ADR-RES ovarian): > 100 µM
- TGI (OVCAR-3 ovarian): > 100 µM
- TGI (OVCAR-4 ovarian): > 100 µM
- TGI (OVCAR-5 ovarian): > 100 µM
- TGI (OVCAR-8 ovarian): > 100 µM
- TGI (PC-3 prostate): > 100 µM
- TGI (RPMI-8226 leukemia): 39.6 µM
- TGI (SF-268 CNS): > 100 µM
- TGI (SF-295 CNS): > 100 µM
- TGI (SF-539 CNS): > 100 µM
- TGI (SK-MEL-2 melanoma): 81.6 µM
- TGI (SK-MEL-28 melanoma): 64.6 µM
- TGI (SK-MEL-5 melanoma): > 100 µM
- TGI (SK-OV-3 ovarian): > 100 µM
- TGI (SN12C renal): 43.5 µM
- TGI (SNB-19 CNS): > 100 µM
- TGI (SR leukemia): 41.1 µM
- TGI (SW-620 colon): > 100 µM
- TGI (T-47D breast): 82.8 µM
- TGI (TK-10 renal): > 100 µM
- TGI (U251 CNS): > 100 µM
- TGI (UACC-257 melanoma): 51.7 µM
- TGI (UACC-62 melanoma): 33.1 µM
- TGI (UO-31 renal): > 100 µM

Structure (SMILES): O=c1n(-c2ccc(Cl)c(Cl)c2)c(=O)n(-c2ccc(Cl)c(Cl)c2)c(=O)n1-c1ccc(Cl)c(Cl)c1
- TGI (786-0 renal): 7.84 µM
- TGI (A498 renal): 7.52 µM
- TGI (A549 NSCLC): 6.37 µM
- TGI (ACHN renal): 6.43 µM
- TGI (BT-549 breast): 8.49 µM
- TGI (CAKI-1 renal): 7.07 µM
- TGI (CCRF-CEM leukemia): 4.5 µM
- TGI (COLO 205 colon): 1.95 µM
- TGI (DU-145 prostate): 12 µM
- TGI (HCC-2998 colon): > 46.7 µM
- TGI (HCT-116 colon): 5.5 µM
- TGI (HCT-15 colon): 6.98 µM
- TGI (HL-60(TB) leukemia): > 24.2 µM
- TGI (HOP-62 NSCLC): 12.4 µM
- TGI (HOP-92 NSCLC): 2.37 µM
- TGI (HS 578T breast): 10 µM
- TGI (HT29 colon): 10.9 µM
- TGI (IGROV1 ovarian): 15 µM
- TGI (K-562 leukemia): 9.05 µM
- TGI (KM12 colon): 7.14 µM
- TGI (LOX IMVI melanoma): 7.16 µM
- TGI (M14 melanoma): 13.1 µM
- TGI (MALME-3M melanoma): > 27.8 µM
- TGI (MCF7 breast): 5.03 µM
- TGI (MDA-MB-231 breast): 4.32 µM
- TGI (MDA-MB-435): 16.5 µM
- TGI (MDA-N): 8.02 µM
- TGI (MOLT-4 leukemia): 4.6 µM
- TGI (NCI-H226 lung): 9.61 µM
- TGI (NCI-H23 lung): 4.91 µM
- TGI (NCI-H460 lung): 10.7 µM
- TGI (NCI-H522 lung): 11.5 µM
- TGI (NCI/ADR-RES ovarian): 11.2 µM
- TGI (OVCAR-3 ovarian): 13.5 µM
- TGI (OVCAR-4 ovarian): 12.1 µM
- TGI (OVCAR-5 ovarian): 8.91 µM
- TGI (OVCAR-8 ovarian): 8.7 µM
- TGI (PC-3 prostate): 4.72 µM
- TGI (RXF 393 renal): 7.85 µM
- TGI (SF-268 CNS): 6.69 µM
- TGI (SF-295 CNS): 6.62 µM
- TGI (SF-539 CNS): 2.77 µM
- TGI (SK-MEL-2 melanoma): 4.53 µM
- TGI (SK-MEL-28 melanoma): 15.1 µM
- TGI (SK-MEL-5 melanoma): 3.44 µM
- TGI (SK-OV-3 ovarian): 3.16 µM
- TGI (SN12C renal): > 31.6 µM
- TGI (SNB-19 CNS): 14.2 µM
- TGI (SNB-75 CNS): 7.75 µM
- TGI (SR leukemia): 8.09 µM
- TGI (SW-620 colon): 10.2 µM
- TGI (T-47D breast): 12.6 µM
- TGI (TK-10 renal): 17.3 µM
- TGI (U251 CNS): 10.6 µM
- TGI (UACC-257 melanoma): 5.73 µM
- TGI (UACC-62 melanoma): 11.2 µM
- TGI (UO-31 renal): 9.73 µM

Structure (SMILES): COC(=O)C1=C(O)C(C(=O)OC)[C@@]2(O)[C@@H](C(=O)OC)C(c3ccc(OC(=O)/C=C/c4ccccc4)cc3)C[C@@H]1[C@@H]2C(=O)OC (some centres not stated)
- TGI (786-0 renal): 42.5 µM
- TGI (A498 renal): > 100 µM
- TGI (A549 NSCLC): > 100 µM
- TGI (ACHN renal): > 100 µM
- TGI (BT-549 breast): 60.1 µM
- TGI (CAKI-1 renal): 73 µM
- TGI (CCRF-CEM leukemia): > 100 µM
- TGI (COLO 205 colon): 23.4 µM
- TGI (DU-145 prostate): > 100 µM
- TGI (EKVX NSCLC): 37.7 µM
- TGI (HCC-2998 colon): 27.3 µM
- TGI (HCT-116 colon): 17.8 µM
- TGI (HCT-15 colon): 46.7 µM
- TGI (HL-60(TB) leukemia): 32.6 µM
- TGI (HOP-62 NSCLC): > 100 µM
- TGI (HOP-92 NSCLC): > 100 µM
- TGI (HS 578T breast): > 100 µM
- TGI (HT29 colon): 17 µM
- TGI (IGROV1 ovarian): > 100 µM
- TGI (K-562 leukemia): > 100 µM
- TGI (KM12 colon): > 100 µM
- TGI (LOX IMVI melanoma): 5.75 µM
- TGI (M14 melanoma): 30.5 µM
- TGI (MALME-3M melanoma): > 100 µM
- TGI (MCF7 breast): > 100 µM
- TGI (MDA-MB-231 breast): 63.6 µM
- TGI (MDA-MB-435): > 100 µM
- TGI (MDA-N): 13.1 µM
- TGI (NCI-H226 lung): 60.1 µM
- TGI (NCI-H23 lung): > 100 µM
- TGI (NCI-H460 lung): 7.8 µM
- TGI (NCI-H522 lung): > 100 µM
- TGI (NCI/ADR-RES ovarian): > 100 µM
- TGI (OVCAR-3 ovarian): 94 µM
- TGI (OVCAR-4 ovarian): > 100 µM
- TGI (OVCAR-5 ovarian): 30.2 µM
- TGI (OVCAR-8 ovarian): > 100 µM
- TGI (PC-3 prostate): > 100 µM
- TGI (RXF 393 renal): 19.1 µM
- TGI (SF-268 CNS): > 100 µM
- TGI (SF-295 CNS): > 100 µM
- TGI (SF-539 CNS): 8.86 µM
- TGI (SK-MEL-2 melanoma): 21.9 µM
- TGI (SK-MEL-28 melanoma): > 100 µM
- TGI (SK-MEL-5 melanoma): 28.8 µM
- TGI (SK-OV-3 ovarian): > 100 µM
- TGI (SN12C renal): 27.3 µM
- TGI (SNB-19 CNS): > 100 µM
- TGI (SNB-75 CNS): > 100 µM
- TGI (SR leukemia): 22.5 µM
- TGI (SW-620 colon): > 100 µM
- TGI (T-47D breast): > 100 µM
- TGI (TK-10 renal): 33.6 µM
- TGI (U251 CNS): 28.5 µM
- TGI (UACC-257 melanoma): 25.4 µM
- TGI (UACC-62 melanoma): 22.6 µM
- TGI (UO-31 renal): 25.5 µM

Reference: PubChem BioAssay (NCI)
